Tested on: barrows
Assay: Fast growth study (Example 2): average daily growth, gait score, lameness incidence
Assay type: in vivo, pig
Conditions: pigs fed RAC 10 ppm last 25 days, regardless of diet
Experimental: A study was conducted in 144 healthy barrows, in which serum biomarkers were measured over 69 days at day 0, day 28, and day 69. Fast growth was induced in some pigs as explained below.
The study was a 2×2 factorial study. The first factor was diet. Pigs were fed either inorganic trace minerals (ITM) or Mintrex° (MTX), an organic mineral. The ITM included a ratio of 120-20-40 ppm Zn—Cu—Mn. The MTX included a ratio of 80-10-20 ppm Zn—Cu—Mn.
The second factor was feeding ractopamine (RAC; a beta-adrenergic agonist) to induce fast growth. Pigs were fed ractopamine at either 0 ppm or 10 ppm during the last 25 days of the trial.

## CC(CCc1ccc(O)cc1)NCC(O)c1ccc(O)cc1 (racemic) [RAC, ractopamine]
  ADG (average daily growth): increased
